This assay addresses MIF (Homo sapiens (Human), UniProt P14174). The assay is described as follows: HPP tautomerase assay (inhibition of the tautomerase activity of MIF). To be noted: for lowering of the Ki relative to 8n: HPP tautomerase assay. Format: biochemical. The method, then: Inhibition of the tautomerase activity of MIF was measured using the substrate 4-hydroxyphenyl pyruvic acid (HPP) in a procedure largely adapted from previous reports. A solution of HPP (10 mM) in acetate buffer (0.5 M ammonium acetate, pH adjusted to 6.0) was prepared and allowed to incubate overnight in the dark at room temperature to allow for equilibration of the keto and enol forms. Following the incubation period, the HPP solution was stored at 4° C. and used for no more than a week. […] A negative control (containing water and DMSO in lieu of protein and inhibitor, respectively) and a positive control (containing DMSO in lieu of inhibitor) were also prepared. The reaction began upon the addition of HPP solution (final concentration: 1.0 mM and 2.5 mM). […] Absorbance was measured three times for each [inhibitor]-[HPP] combination. […] Reported Ki values represent the average value obtained from two assays performed on different days. (R)-ISO-1 (purchased from Santa Cruz Biotechnology) was used as a control.
Recombinant human MIF was expressed and purified according to published protocols. Briefly, for the purification of MIF, E. coli cell pellets were suspended in lysis buffer (20 mM Tris, pH 7.5; 20 mM sodium chloride; 10% glycerol; 2 mM magnesium chloride; 1 cOmplete mini protease inhibitor cocktail tablet per 250 mL of buffer). The solution was sonicated and centrifuged at 27,000G for 30 mins. The supernatant was filtered through a 0.22 μm syringe filter and loaded on a GE Healthcare Hi-Trap SP HP column in sequence with a GE Healthcare Hi-Trap Q SP column equilibrated with a buffer composed of 20 mM NaCl and 20 mM Tris, pH 7.5. […] To achieve highest purity, the flow-through was further purified with a GE Healthcare Superdex 200 column. The purified protein was concentrated with a 10 kDa centrifugal filter unit to 30 mg/mL, flash-frozen in liquid nitrogen, and stored at −80° C.
As in prior studies, the inhibition constants Ki were determined using HPP as the substrate. […] In addition, the aqueous solubilities of several compounds were measured with a shake-flask procedure.

Where [1] appears, read: HPP as substrate, MIF tautomerase, read-out: Experimental inhibition constants, Ki.
Setting [2] is: Table 3, HPP as substrate, unit inferred, read-out: HPP Ki.

Where two headings read alike, the source gives them in different places.

MIF, sequence (P14174 2-115): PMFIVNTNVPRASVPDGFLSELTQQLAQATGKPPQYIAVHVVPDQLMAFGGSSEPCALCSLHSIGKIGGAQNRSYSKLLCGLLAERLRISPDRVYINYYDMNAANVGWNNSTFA

As a reminder, the Ki is the dissociation constant of the complex between target and ligand, obtained from inhibition or displacement. Take `O=C(O)c1cc(-c2cn[nH]c2)ccc1-c1ccccc1` [Compound 6a, 4-(1H-pyrazol-4-yl)-[1,1′-biphenyl]-2-carboxylic acid]: the Ki under setting [1] is 20.6 µM.

As for `O=C(O)c1cc(-c2cn[nH]c2)ccc1-c1cccc2ccccc12` [Compound 6b, 2-(Naphthalen-1-yl)-5-(1H-pyrazol-4-yl)benzoic acid], under setting [1], the Ki is 19.5 µM.

Turning to `O=C(O)c1cc(-c2cn[nH]c2)ccc1-c1ccc2ccccc2c1` [Compound 6c, 2-(Naphthalen-2-yl)-5-(1H-pyrazol-4-yl)benzoic acid], the inhibition constant (Ki) came out at 5 µM. Besides, the Ki under setting [1] came to 5.4 µM.

For `O=C(O)c1cc(-c2cn[nH]c2)ccc1Nc1ccccc1` [Compound 7a, 2-(Phenylamino)-5-(1H-pyrazol-4-yl)benzoic acid], the Ki under setting [1] was 12.7 µM.

`CN(c1ccc2ccccc2c1)c1ccc(-c2cn[nH]c2)cc1C(=O)O` [Compound 7b, 2-(Methyl(naphthalen-2-yl)amino)-5-(1H-pyrazol-4-yl)benzoic acid]: the Ki under setting [1] came to 4.2 µM.

In the case of `O=C(O)c1cc(-c2cn[nH]c2)ccc1Oc1ccccc1` [Compound 8a, 2-Phenoxy-5-(1H-pyrazol-4-yl)benzoic acid], the Ki under setting [1] was 6.8 µM.

Turning to `Cc1ccccc1Oc1ccc(-c2cn[nH]c2)cc1C(=O)O` [Compound 8b, 5-(1H-Pyrazol-4-yl)-2-(o-tolyloxy)benzoic acid], under setting [1], the Ki worked out at 4.3 µM.

Take `Cc1cccc(Oc2ccc(-c3cn[nH]c3)cc2C(=O)O)c1` [Compound 8c, 5-(1H-Pyrazol-4-yl)-2-(m-tolyloxy)benzoic acid]: the Ki under setting [1] was found to be 3.8 µM.

In the case of `Cc1ccc(Oc2ccc(-c3cn[nH]c3)cc2C(=O)O)cc1` [Compound 8d, 5-(1H-Pyrazol-4-yl)-2-(p-tolyloxy)benzoic acid], the Ki under setting [1] worked out at 7 µM.

Take `O=C(O)c1cc(-c2cn[nH]c2)ccc1Oc1cccc(F)c1` [Compound 8e, 2-(3-Fluorophenoxy)-5-(1H-pyrazol-4-yl)benzoic acid]: under setting [1], the Ki worked out at 1.7 µM.

Take `O=C(O)c1cc(-c2cn[nH]c2)ccc1Oc1ccc(F)cc1` [Compound 8f, 2-(4-Fluorophenoxy)-5-(1H-pyrazol-4-yl)benzoic acid]: the Ki under setting [1] was 4.6 µM.

Take `CS(=O)(=O)c1cc(-c2cn[nH]c2)ccc1Oc1ccc2ccccc2c1` [Compound 8h, 4-(3-(Methylsulfonyl)-4-(naphthalen-2-yloxy)phenyl)-1H-pyrazole]: the Ki under setting [1] came to 6.4 µM.

For `O=C(O)c1cc(-c2cn[nH]c2)ccc1Oc1cc2ccccc2c2ccccc12` [Compound 8j, 2-(Phenanthren-9-yloxy)-5-(1H-pyrazol-4-yl)benzoic acid], the Ki under setting [1] is 2.3 µM.

On to `O=C(O)c1cc(-c2cn[nH]c2)ccc1OC1C2CC3CC(C2)CC1C3` (centres unmarked) [Compound 8k, 2-((Adamantan-2-yl)oxy)-5-(1H-pyrazol-4-yl)benzoic acid], for which the Ki under setting [1] stood at 2.6 µM.

Regarding `O=C(O)c1cc(-c2cn[nH]c2)ccc1Oc1cc2c3c(cccc3c1)CC2` [Compound 8l, 2-((1,2-Dihydroacenaphthylen-4-yl)oxy)-5-(1H-pyrazol-4-yl)benzoic acid], the Ki under setting [1] came out at 1.1 µM.

For the molecule `O=C(O)c1cc(-c2c[nH]nc2F)ccc1Oc1cccc2ccccc12` [Compound 8m, 5-(3-Fluoro-1H-pyrazol-4-yl)-2-(naphthalen-1-yloxy)benzoic acid], under setting [1], the inhibitory constant (Ki) stood at 0.48 µM.

With `CCc1cc(Oc2ccc(-c3c[nH]nc3F)cc2C(=O)O)cc2ccccc12` [Compound 8o, 2-((4-Ethylnaphthalen-2-yl)oxy)-5-(3-fluoro-1H-pyrazol-4-yl)benzoic acid], the “lowering of the Ki relative to 8n” value is on record as 3 fold. Also, the Ki under setting [1] came to 0.15 µM.

Regarding `CCc1cccc2cc(Oc3ccc(-c4c[nH]nc4F)cc3C(=O)O)ccc12` [Compound 8p, 2-((5-Ethylnaphthalen-2-yl)oxy)-5-(3-fluoro-1H-pyrazol-4-yl)benzoic acid], the “lowering of the Ki relative to 8n” value was found to be 3 fold. Besides, the Ki under setting [1] came out at 0.17 µM.

Take `CCc1ccc2ccc(Oc3ccc(-c4c[nH]nc4F)cc3C(=O)O)cc2c1` [Compound 8q, 2-((7-Ethylnaphthalen-2-yl)oxy)-5-(3-fluoro-1H-pyrazol-4-yl)benzoic acid]: the “lowering of the Ki relative to 8n” value is reported as 3 fold. Also, the Ki under setting [1] worked out at 0.14 µM.

For the molecule `O=C(O)c1cc(-c2c[nH]nc2F)ccc1Oc1cc(C2CC2)c2ccccc2c1` [Compound 8r, 2-((4-Cyclopropylnaphthalen-2-yl)oxy)-5-(3-fluoro-1H-pyrazol-4-yl)benzoic acid], under setting [1], the Ki stood at 0.11 µM.

Turning to `CCc1ccc2c(C3CC3)cc(Oc3ccc(-c4c[nH]nc4F)cc3C(=O)O)cc2c1` [Compound 8s, 2-((4-Cyclopropyl-7-ethylnaphthalen-2-yl)oxy)-5-(3-fluoro-1H-pyrazol-4-yl)benzoic acid], the Ki under setting [1] is 0.066 µM.

Regarding `O=C(O)c1cc(-c2c[nH]nc2F)ccc1Oc1ccc(-c2ccccc2)cc1` [Compound 8t, 2-([1,1′-Biphenyl]-4-yloxy)-5-(3-fluoro-1H-pyrazol-4-yl)benzoic acid], the Ki under setting [1] was found to be 0.35 µM.

`O=C(O)c1cc(-c2c[nH]nc2F)ccc1Oc1cccc(-c2ccccc2)c1` [Compound 8u, 2-([1,1′-Biphenyl]-3-yloxy)-5-(3-fluoro-1H-pyrazol-4-yl)benzoic acid]: under setting [1], the inhibitory constant (Ki) was 0.13 µM.

For `Cc1cc(C)cc(-c2cccc(Oc3ccc(-c4c[nH]nc4F)cc3C(=O)O)c2)c1` [Compound 8v, 2-((3′,5′-Dimethyl-[1,1′-biphenyl]-3-yl)oxy)-5-(3-fluoro-1H-pyrazol-4-yl)benzoic acid], the Ki under setting [1] was 0.24 µM.

As to `O=C(O)c1cc(-c2c[nH]nc2F)ccc1Oc1cccc(-c2ncccn2)c1` [Compound 9aa, 5-(3-fluoro-1H-pyrazol-4-yl)-2-(3-(pyrimidin-2-yl)phenoxy)benzoic acid], the inhibition constant (Ki) under setting [2] turned out to be 0.23 µM.

Take `O=C(O)c1cc(-c2c[nH]nc2F)ccc1Oc1cccc(-c2ccc(CCN3CCOCC3)cc2)c1` [Compound 9bb, 5-(3-fluoro-1H-pyrazol-4-yl)-2-((4′-(2-morpholinoethyl)-[1,1′-biphenyl]-3-yl)oxy)benzoic acid]: the inhibition constant (Ki) under setting [2] amounted to 0.33 µM.

For `Cc1n[nH]cc1-c1ccc(Oc2ccc3ccccc3c2)c(C(=O)O)c1` [Compound 9cc, 5-(3-methyl-1H-pyrazol-4-yl)-2-(naphthalen-2-yloxy)benzoic acid], the Ki under setting [2] was 15 µM.

For `Cc1ccc(-c2cn[nH]c2)cc1C(=O)O` [Compound 9e, 2-methyl-5-(1H-pyrazol-4-yl)benzoic acid], under setting [2], the inhibition constant (Ki) is 60 µM.

For `O=C(O)c1cc(-c2cn[nH]c2)ccc1Oc1cccc(Cl)c1` [Compound 9f, 2-(3-chlorophenoxy)-5-(1H-pyrazol-4-yl)benzoic acid], the Ki under setting [2] worked out at 20 µM.

Take `O=C(O)c1cc(-c2cn[nH]c2)ccc1Oc1ccc(Cl)cc1` [Compound 9g, 2-(4-chlorophenoxy)-5-(1H-pyrazol-4-yl)benzoic acid]: the Ki under setting [2] stood at 8.4 µM.

Consider `COc1ccc(Oc2ccc(-c3cn[nH]c3)cc2C(=O)O)cc1` [Compound 9h, 2-(4-methoxyphenoxy)-5-(1H-pyrazol-4-yl)benzoic acid], for which the inhibitory constant (Ki) under setting [2] worked out at 2.3 µM.

Consider `COc1cccc(Oc2ccc(-c3cn[nH]c3)cc2C(=O)O)c1` [Compound 9i, 2-(3-methoxyphenoxy)-5-(1H-pyrazol-4-yl)benzoic acid], for which the Ki under setting [2] came out at 2.5 µM.

Take `CC(=O)NCCc1ccc(Oc2ccc(-c3cn[nH]c3)cc2C(=O)O)cc1` [Compound 9l, 2-(4-(2-acetamidoethyl)phenoxy)-5-(1H-pyrazol-4-yl)benzoic acid]: the Ki under setting [2] was determined as 11 µM.

In the case of `O=C(O)c1cc(-c2cn[nH]c2)ccc1Oc1cccc2ccoc12` [Compound 9m, 2-(benzofuran-7-yloxy)-5-(1H-pyrazol-4-yl)benzoic acid], the Ki under setting [2] came to 3.7 µM.

`O=C(O)c1cccc(Oc2ccc(-c3cn[nH]c3)cc2C(=O)O)c1` [Compound 9n, 2-(3-carboxyphenoxy)-5-(1H-pyrazol-4-yl)benzoic acid]: the Ki under setting [2] worked out at 9.4 µM.

On to `O=C(O)c1cc(-c2cn[nH]c2)ccc1Oc1ccc2occc2c1` [Compound 9o, 2-(benzofuran-5-yloxy)-5-(1H-pyrazol-4-yl)benzoic acid], for which the Ki under setting [2] stood at 3.8 µM.

Turning to `O=C(O)c1cc(-c2cn[nH]c2)ccc1Oc1ccc2ccoc2c1` [Compound 9p, 2-(benzofuran-6-yloxy)-5-(1H-pyrazol-4-yl)benzoic acid], the inhibition constant Ki under setting [2] amounted to 1.5 µM.

Consider `O=C(O)c1cc(-c2cn[nH]c2)ccc1Oc1cc2c3c(cccc3c1)C=C2` [Compound 9q, 2-(acenaphthylen-4-yloxy)-5-(1H-pyrazol-4-yl)benzoic acid], for which the Ki under setting [2] worked out at 1.5 µM.

Regarding `O=C(O)c1cc(-c2cn[nH]c2)ccc1[S+]([O-])c1ccccc1` (centres unmarked) [Compound 9r, 2-(phenylsulfinyl)-5-(1H-pyrazol-4-yl)benzoic acid], the Ki under setting [2] turned out to be 13 µM.

Regarding `O=C(O)c1cc(-c2c[nH]nc2F)ccc1Oc1ccc2ccoc2c1` [Compound 9s, 2-(benzofuran-6-yloxy)-5-(3-fluoro-1H-pyrazol-4-yl)benzoic acid], the Ki under setting [2] stood at 0.57 µM.

Values taken from US11999723B2, “Pyrazole-containing macrophage migration inhibitory factor inhibitors” (priority 2018, dated 2024).
